# Assay results taken from patent US10370351B2, “Photoinduced electron transfer voltage-sensitive compounds” (The Regents of the University of California, priority 2016, dated 2019).
# How the values were obtained:
# [1] = test system: HEK293T cells; assay: Voltage sensitivity in HEK cells, whole-cell patch clamp with fluorescence imaging; format: cell-based; details: for ΔF/F (%) voltage sensitivity: per 100 mV, HEK cells, whole-cell voltage clamp, 200 nM VF
# Protocol: Functional imaging of VF dyes was performed using a 20× objective paired with image capture from the EMCCD camera at a sampling rate of 0.5 kHz. VF dyes were excited using the 488 nm LED with an intensity of 2.5 W/cm^2. For initial voltage characterization emission was collected with the QUAD filter (430/32, 508/14, 586/30, 708/98 nm) after passing through a quadruple dichroic mirror (432/38, 509/22, 586/40, 654 nm LP).
# Recordings were obtained with an Axopatch 200B amplifier (Molecular Devices) at room temperature. The signals were digitized with Digidata 1332A, sampled at 50 kHz and recorded with pCLAMP 10 software (Molecular Devices) on a PC. Fast capacitance was compensated in the on-cell configuration. For all electrophysiology experiments, recordings were only pursued if series resistance in voltage clamp was less than 30 MΩ. For whole-cell, voltage clamp recordings in HEK 293T cells, cells were held at −60 mV and 100 ms hyper- and depolarizing steps applied from −100 to +100 mV in 20 mV increments. For whole-cell, following membrane rupture, resting membrane potential was assessed and recorded at I=0 and monitored during the data acquisition.
# Analysis of voltage sensitivity in HEK cells was performed using custom Matlab routines. Briefly, a region of interest (ROI) was selected automatically based on fluorescence intensity and applied as a mask to all image frames. Fluorescence intensity values were calculated at known baseline and voltage step epochs.
# To determine the voltage sensitivity of each of the dyes, whole-cell patch clamp electrophysiology was performed on HEK293T cells loaded with 200 nM VF (FIG. 8a-d). Depolarization of the cell membrane in the presence of VF dye results in a large increase of fluorescence, while hyperpolarization results in lower levels of fluorescence (FIG. 8c-d; FIG. 9). As an illustrative comparison, msVF2.2(OMe). […] Cl, at 48% per 100 mV. The disulfoVF2.2(OMe).
# [2] = Spectroscopic studies (absorbance, emission, quantum yield); format: physicochemical; details: phosphate-buffered saline, pH 7.4 with 0.1% Triton X-100
# Protocol: Stock solutions of VF dyes were prepared in DMSO (1.0-10 mM) and diluted with PBS (100 mM Na2HPO4, pH 7.4, 0.1% Triton-X). UV-Vis absorbance and fluorescence spectra were recorded using a Shimadzu 2501 Spectrophotometer (Shimadzu) and a Quantamaster Master 4 L-format scanning spectrofluorometer (Photon Technologies International). The fluorometer is equipped with an LPS-220B 75-W xenon lamp and power supply, A-1010B lamp housing with integrated igniter, switchable 814 photon-counting/analog photomultiplier detection unit, and MD5020 motor driver. Samples were measured in 1-cm path length quartz cuvettes (Starna Cells).
# [3] = Solubility of VoltageFluor dyes and sulfofluoresceins in water; format: physicochemical; details: ds vs ms VF dye; distilled water, 0.1% DMSO, 20 degrees Celsius, UV-Vis
# Protocol: Suspensions of 5 milligrams each of solid mono- and disulfo-dichlorofluoresceins in 5 mL of distilled water were created. Over the course of three days, 5 milligrams of solid material was added at a time, ensuring that no visible particulates were present in the solution prior to addition. At the end of the experiment, the suspension was filtered through filter paper and then through a 0.22-μm polytetrafluoroethylene filter into a scintillation vial. 10 μL of this filtrate was used as a stock solution to determine the concentration of fluorescein present via UV-Vis spectrophotometry and the remainder was lyophilized and the amount of solid resulting was measured using an analytical microbalance. For VF dyes (VF2.1.Cl and VF2.2(OMe).Cl, both ms and ds versions), saturated solutions in distilled water were prepared via dilution from a 100 μM stock in DMSO for a resulting solution containing 0.1% DMSO. The solutions were allowed to sit overnight at 20 degrees Celsius and then filtered through 0.22-μm filters. The resulting filtrates were used as stock solutions to determine the amount of VF present via UV-Vis spectrophotometry.
# [4] = test system: HEK293T cells; assay: Membrane localization after bath loading, fluorescence imaging; format: cell-based; details: HEK cells
# Excerpt: A total of 9 new dyes were made: 6 new dsVF dyes and 3 new msVF dyes. Both msVF and dsVF dyes display similar excitation and emission profiles to previously reported msVF dyes (Table 1, FIG. 7A-I), and all localized to the plasma membrane when applied to HEK293T cells via bath loading (FIG. 8a-b).
# [5] = test system: rat hippocampal neurons; assay: Staining and voltage imaging of cultured rat hippocampal neurons; format: cell-based
# Excerpt: Cl, it was expected that disulfoVF2.2(OMe). Cl would be well-suited to observing membrane potential changes in neurons. Cultured rat hippocampal neurons bathed in disulfoVF2.2(OMe). […] Cl was also used to image neuronal activity in midbrain dopaminergic (mDA) neurons derived from cultured human pluripotent stem cells (hPSCs) in culture (FIG. 11b) using differentiation conditions adapted from previously established protocols. mDA neurons stained with dsVF2.2(OMe). […] Functional analysis of human- or patient-derived differentiated neurons in a simple, non-invasive manner enabled by dsVF2.2(OMe). Cl can provide an important diagnostic tool alongside more conventional methods in ascertaining proper differentiation as well as in investigating human disease phenotypes.
# [6] = test system: hPSC-derived mDA neurons; assay: Voltage imaging of hPSC-derived midbrain dopaminergic (mDA) neurons; format: cell-based, human; details: mDA neurons stained with 500 nM dye
# Protocol: mDA neurons were derived from H1 human embryonic stem cells (hESCs) using medium conditions as described in Kriks et al., Nature, 480, 547, 2011). On Day 25 of differentiation, cells were harvested from the culture platform and pipetted to generate small 50-100 μm clusters, and seeded on 12 mm glass coverslips coated with 20 μg/ml Laminin (ThermoFischer Scientific). Cells were subsequently matured for 10 days before voltage sensitive imaging.
# Functional imaging of mDA cells was performed using a 20× objective paired with image capture from the ORCA-Flash4.0 camera (Hamamatsu) at a sampling rate of 100 Hz. VoltageFluor dye was excited using the 488 nm LED with an intensity of 2.5 W/cm^2. Light was collected with the QUAD filter (430/32, 508/14, 586/30, 708/98 nm) after passing through a quadruple dichroic mirror (432/38, 509/22, 586/40, 654 nm LP). For image analysis, a custom Matlab routine was employed. Briefly, a TIFF stack was imported into Matlab and the intensity values a user-designated block of pixels was extracted as an array. The intensity over time for each block was then baseline corrected by fitting to a 2nd degree polynomial. […]
# [7] = test system: HEK cells; assay: Determination of photostability in HEK cells; format: cell-based; details: compared to msVF2.2(OMe).Cl; 1 μM, 488 nm LED
# Protocol: HEK cells were incubated separately with ms- and ds-VF2.1.Cl and VF2.2(OMe). Cl at 1 μM in HBSS at 37 degrees Celsius for 15 minutes. Data were acquired with a W-Plan-Apo 63×/1.0 objective (Zeiss) and the ORCA-Flash4.0 camera (Hamamatsu). Images were exposed for 10 milliseconds each across 50 seconds with a constant illumination of the 488 nm LED (153 W/cm^2). The excitation light was collected with the QUAD filter (430/32, 508/14, 586/30, 708/98 nm) after passing through a quadruple dichroic mirror (432/38, 509/22, 586/40, 654 nm LP). The fluorescence curves were background subtracted and then normalized to the fluorescence intensity at t=0 and averaged across five cells of each dye.
structure (smiles),measurement,setting,value
CCN(CC)c1ccc(/C=C/c2ccc(/C=C/c3cc(S(=O)(=O)O)c(-c4c5cc(Cl)c(=O)cc-5oc5cc(O)c(Cl)cc45)c(S(=O)(=O)O)c3)cc2)c(OC)c1 [dsVF2.2(OMe).Cl],ΔF/F (%) voltage sensitivity,[1],63%
same,ΔF/F (%) voltage sensitivity,[1]; listed as disulfoVF2.2(OMe). Cl,63%
same,ΔF/F (%) voltage sensitivity,[1]; listed as disulfoVF2.2(OMe).Cl,63%
same,ΔF/F (%) voltage sensitivity,[1]; listed as dsVF2.2(OMe). Cl,approximately 63%
same,Improvement (%) in voltage sensitivity,[1]; relative to corresponding msVF,19%
same,Φf1 (fluorescence quantum yield),[2],0.07
same,λabs,[2],520 nm
same,λem,[2],540 nm
same,improvement of aqueous solubility by second sulfonate,[3],55%
same,membrane localization,[4],clear membrane localization
same,membrane staining of neurons,"[5]; confocal microscopy, 500 nM",bright membrane staining
same,detection of membrane potential changes,[5]; rat hippocampal neurons,can be used to detect membrane potential changes in rat hippocampal neurons
same,imaging of neuronal activity,[6],revealed distinct firing patterns
same,photostability,[7],good photostability
